# Data from patent publication US7998940B2, “Aptamers to von Willebrand factor and their use as thrombotic disease therapeutics” (Archemix Corp., priority 2004, dated 2011).
# Where two headings read alike, the source gives them in different places. Oligonucleotides are written 5' to 3', each unit as a sugar letter and its base; * is a phosphorothioate linkage, no mark a phosphodiester; rarer units and linkages stand in square brackets, end groups in braces. Plain capitals give the bases only. [invdT] = inverted (3'-3') thymidine; d = 2'-deoxy (DNA); m = 2'-O-methyl
# How the values were obtained:
# [1] = system: full length human vWF binding to lyophilized platelets; assay: Full length human von Willebrand Factor platelet binding assay (FACS); type: cell-based
# In short: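 Aptamer titrations (0.1–1000 nM) pre-incubated with 5 nM full-length human vWF, then added to lyophilized platelets plus botrocetin for 15 min at 37 °C in PBS/0.5% BSA. Bound vWF detected by anti-vWF then FITC secondary antibody via flow cytometry MFI; % inhibition versus no-aptamer binding fitted for IC50.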
# [2] = biological target: vWF (Homo sapiens, UniProt P04275, D1472H/Q852R/T1381A); assay: cellular / biological vWF dependent assays of Example 3, not specified further; type: cell-based; details: in words; FACS, BIPA (and PFA-100) assays of Example 3
# Description: The effectiveness of various aptamers in blocking vWF function in several biological assays is described in this Example.
# In one assay botrocetin is used. Botrocetin, a protein isolated from snake venom, is known to induce von Willebrand Factor binding to the gpib receptor on live and fixed platelets. This reaction causes agglutination of suspensions of fixed platelets via vWF multimerization. In preparations of platelet rich plasma (hereinafter “PRP”), vWF/botrocetin induction of agglutination is followed by a second phase of platelet aggregation caused by metabolic activation of the platelets. These two reactions: vWF binding to fixed platelets and vWF mediated platelet aggregation, can be used to measure the activity of aptamers of the invention.
# [3] = system: full length human vWF (SEQ ID NO 7); assay: dot blot KD determination and extent of binding, full length human vWF; details: for binding to human vWF: in words; for % binding @ 100 nM vWF: extent of aptamer binding at 100 nM full length human vWF;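 for all read-outs here: dot blot binding of aptamers to full length human vWF across a protein titration, incubated 30 minutes at room temperature in 1x DPBS with BSA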
# [4] = system: rabbit vWF domain A1 binding to lyophilized platelets; assay: Rabbit von Willebrand Factor domain A1 platelet binding assay (FACS); type: cell-based; details: read-out: FACS IC50 vs rabbit A1 domain
# In short: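 Aptamers (0.1–1000 nM) preincubated with 4 nM His-tagged rabbit vWF A1 in PBS/0.5% BSA, then lyophilized human platelets plus botrocetin added, 15 min at 37 °C. Bound A1 detected by anti-His-biotin and PE secondary via flow cytometry (median fluorescence, background-subtracted); IC50 fitted from percent inhibition.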
# [5] = system: botrocetin induced platelet aggregation; assay: Inhibition of botrocetin induced platelet aggregation (BIPA) in human PRP; type: cell-based; details: human platelet rich plasma
# Experimental: In platelet rich plasma isolated from fresh human blood, botrocetin induces platelet aggregation via vWF. Platelet aggregate formation can be measured optically as an increase in % light transmittance on a Chronolog Model 490-4D Aggregometer because aggregation of platelets clarifies the plasma. Aptamers of the invention were analyzed for their ability to inhibit botrocetin induced platelet aggregation (“BIPA”) in human blood. An aptamer of the invention was considered to be active if it could prevent aggregate formation for six minutes post botrocetin addition.
# In order to determine the activity of aptamers on live human platelets, BIPA assays were done using freshly prepared platelet rich plasma. Blood was obtained from healthy human donors who had not taken NSAIDS for at least five days. […] Collected blood was pooled into 15 mL conical tubes and was spun at 200 g for 20 minutes. The turbid, yellow layer of platelet rich plasma (“PRP”) was withdrawn from the tubes, pooled, and set aside at room temperature. The remaining blood was spun at 2500 g for ten minutes. The clarified layer of plasma, known as platelet poor plasma (“PPP”), was withdrawn and set aside at room temperature. PRP was aliquoted into cuvettes containing stir bars at a volume of 470 uL. A sample of 500 uL of PPP was aliquoted into a cuvette and placed in the PPP reference cell of the platelet aggregometer. Samples of PRP were prewarmed at 37 degrees C. in the platelet aggregometer for 3-5 minutes before being used in BIPA assays. First, the concentration of botrocetin needed to induce platelet aggregation for each individual donor was determined by titration. This concentration of botrocetin was used for the remainder of the experiment. Next, aptamer was assayed by adding titrations of aptamer (zero, 1 nM to 1000 nM) to prewarmed PRP for one minute, followed by addition of botrocetin. With platelet aggregation, an increase in amplitude of light transmission is seen (FIG. 8). The concentration at which platelet aggregation is blocked at 90% or greater after 6 minutes is reported in the final column of Table 26.
# [6] = not given; remark: listed apart in the source
# [7] = system: rabbit vWF A1 domain (SEQ ID NO 6); assay: dot blot KD determination, rabbit vWF A1 domain; type: binding; details: dot blot, 12 point protein titration, 1xDPBS plus 0.1 mg/mL BSA, room temperature, 30 minutes
# Experimental: A 12 point protein titration was used in the dot blot assay (300 nM, 100 nM, 30 nM, 10 nM, 3 nM, 1 nM, 300 pM, 100 pM, 30 pM, 10 pM, 3 pM, 0 pM) in 1×DPBS plus 0.1 mg/mL BSA at room temperature for 30 minutes.
# [8] = system: rabbit vWF A1 domain (SEQ ID NO 6); assay: 3-point dot blot screen, rabbit vWF A1 domain; type: binding; details: 3-point dot blot screen, 20 nM rabbit vWF A1 domain; ratio of fraction of aptamer bound with target protein to fraction bound without protein
# In short: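 Rabbit vWF A1 domain binding was screened by dot blot using three conditions: no target protein, human vWF, and rabbit vWF A1 domain at 100 nM (20 nM in the screen run twice). Radiolabeled aptamer bound to nitrocellulose was quantified, and results are expressed as the ratio of bound fraction with protein to bound fraction without protein.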
# [9] = system: full length human vWF; assay: 3-point dot blot screen, full length human vWF; type: binding; details: 20 nM full length human vWF, ratio of fraction of aptamer bound with target protein to fraction bound without protein
# In short: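 Unique aptamer clones tested twice by nitrocellulose dot blot with no protein, 20 nM full-length human vWF or 20 nM rabbit vWF A1 domain. Value is fraction of aptamer bound with target divided by fraction bound without protein.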
# [10] = system: intra-arterial thrombosis of carotid arteries; assay: cynomolgus macaque electrolytic thrombosis model; type: in vivo, cynomolgus monkeys; details: animals treated with Reopro
# Experimental: A study was performed to test the efficacy of ARC1779 (SEQ ID NO 320) in inhibiting intra-arterial thrombosis in a well documented non-human primate electrolytic thrombosis model. See, e.g., Rote et al., Stroke, 1994: 25, 1223-1233.
# Each animal was anesthetized prior to surgical preparation, intubated and maintained in anesthesia with isoflurane inhalant anesthetic to effect delivered through a volume-regulated respirator. An intravenous catheter was also placed in a peripheral vein for administration of lactated Ringer's solution during the procedure.
# A catheter was placed in the femoral artery of each animal for continuous monitoring of arterial blood pressure. Similarly a catheter was placed in the femoral vein for blood sample collection. Each carotid artery was instrumented with a Doppler flow probe connected to a flow meter. The flow probes were placed around the artery at a point proximal to the insertion of the intra-arterial electrode and stenosis. The stenosis was placed around each carotid artery so that the […] was reduced by approximately 50% to 60% without altering the mean […]. Blood flow in the carotid arteries was monitored and recorded continuously throughout the observation periods.
# Electrolytic injury to the intimal surface of each carotid artery was accomplished via placement of an intravascular electrode. Each electrode was connected to the positive pole of a constant current device and cathode connected to a distant subcutaneous site. Continuous current was delivered to each vessel for a period of 3 hours or for 30 minutes after complete occlusion, whichever was shorter.
# Once the electrodes were placed on the right carotid artery (“RCA”) the animal was administered the test article as indicated in Table 32 above. Approximately 15 minutes after test article administration, the electrical current was applied at 100 μA. Blood samples and CBT measurements were collected at the time points specified in Blood Sample Collection Schedule as indicated in FIG. 31. The current was terminated ˜30 minutes after the blood flow signal remained stable at zero flow (which indicates an occlusive thrombus had been formed at the site) or after 180 minutes of electrical stimulation. Approximately 195 minutes after the test article was administered, the left carotid artery (“LCA”) had electrical current administered in a similar fashion as previously described for the RCA. After termination of all surgical procedures and sample collection each animal was euthanized.
# An additional 10 cynomolgus monkeys (2.5 to 3.5 kg) were divided into treatment groups 5 to 7 and were treated according the regimen indicated in Table 33 below.
# The animal procedure for each treatment group in Table 33 was conducted as reported for the animals in Example 5B.
# [11] = 5 nM full length human vWF, lyophilized platelets, botrocetin, read-out: Inhibition of full length hVWF binding in FACS assay, Average IC50
# [12] = dot blot, 12 point protein titration, 1xDPBS plus 0.1 mg/mL BSA, room temperature, 30 minutes, read-out: full length human vWF KD
# Chain of rabbit vWF A1 domain (SEQ ID NO 6) (as listed by the source): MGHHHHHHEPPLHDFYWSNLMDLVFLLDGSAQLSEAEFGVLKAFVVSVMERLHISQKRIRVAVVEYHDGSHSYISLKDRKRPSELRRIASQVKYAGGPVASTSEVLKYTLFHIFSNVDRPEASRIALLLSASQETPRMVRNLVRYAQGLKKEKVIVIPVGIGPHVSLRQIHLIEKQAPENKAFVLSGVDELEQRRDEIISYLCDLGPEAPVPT
# Chain of vWF (P04275 764-2813 Q852R/T1381A/D1472H): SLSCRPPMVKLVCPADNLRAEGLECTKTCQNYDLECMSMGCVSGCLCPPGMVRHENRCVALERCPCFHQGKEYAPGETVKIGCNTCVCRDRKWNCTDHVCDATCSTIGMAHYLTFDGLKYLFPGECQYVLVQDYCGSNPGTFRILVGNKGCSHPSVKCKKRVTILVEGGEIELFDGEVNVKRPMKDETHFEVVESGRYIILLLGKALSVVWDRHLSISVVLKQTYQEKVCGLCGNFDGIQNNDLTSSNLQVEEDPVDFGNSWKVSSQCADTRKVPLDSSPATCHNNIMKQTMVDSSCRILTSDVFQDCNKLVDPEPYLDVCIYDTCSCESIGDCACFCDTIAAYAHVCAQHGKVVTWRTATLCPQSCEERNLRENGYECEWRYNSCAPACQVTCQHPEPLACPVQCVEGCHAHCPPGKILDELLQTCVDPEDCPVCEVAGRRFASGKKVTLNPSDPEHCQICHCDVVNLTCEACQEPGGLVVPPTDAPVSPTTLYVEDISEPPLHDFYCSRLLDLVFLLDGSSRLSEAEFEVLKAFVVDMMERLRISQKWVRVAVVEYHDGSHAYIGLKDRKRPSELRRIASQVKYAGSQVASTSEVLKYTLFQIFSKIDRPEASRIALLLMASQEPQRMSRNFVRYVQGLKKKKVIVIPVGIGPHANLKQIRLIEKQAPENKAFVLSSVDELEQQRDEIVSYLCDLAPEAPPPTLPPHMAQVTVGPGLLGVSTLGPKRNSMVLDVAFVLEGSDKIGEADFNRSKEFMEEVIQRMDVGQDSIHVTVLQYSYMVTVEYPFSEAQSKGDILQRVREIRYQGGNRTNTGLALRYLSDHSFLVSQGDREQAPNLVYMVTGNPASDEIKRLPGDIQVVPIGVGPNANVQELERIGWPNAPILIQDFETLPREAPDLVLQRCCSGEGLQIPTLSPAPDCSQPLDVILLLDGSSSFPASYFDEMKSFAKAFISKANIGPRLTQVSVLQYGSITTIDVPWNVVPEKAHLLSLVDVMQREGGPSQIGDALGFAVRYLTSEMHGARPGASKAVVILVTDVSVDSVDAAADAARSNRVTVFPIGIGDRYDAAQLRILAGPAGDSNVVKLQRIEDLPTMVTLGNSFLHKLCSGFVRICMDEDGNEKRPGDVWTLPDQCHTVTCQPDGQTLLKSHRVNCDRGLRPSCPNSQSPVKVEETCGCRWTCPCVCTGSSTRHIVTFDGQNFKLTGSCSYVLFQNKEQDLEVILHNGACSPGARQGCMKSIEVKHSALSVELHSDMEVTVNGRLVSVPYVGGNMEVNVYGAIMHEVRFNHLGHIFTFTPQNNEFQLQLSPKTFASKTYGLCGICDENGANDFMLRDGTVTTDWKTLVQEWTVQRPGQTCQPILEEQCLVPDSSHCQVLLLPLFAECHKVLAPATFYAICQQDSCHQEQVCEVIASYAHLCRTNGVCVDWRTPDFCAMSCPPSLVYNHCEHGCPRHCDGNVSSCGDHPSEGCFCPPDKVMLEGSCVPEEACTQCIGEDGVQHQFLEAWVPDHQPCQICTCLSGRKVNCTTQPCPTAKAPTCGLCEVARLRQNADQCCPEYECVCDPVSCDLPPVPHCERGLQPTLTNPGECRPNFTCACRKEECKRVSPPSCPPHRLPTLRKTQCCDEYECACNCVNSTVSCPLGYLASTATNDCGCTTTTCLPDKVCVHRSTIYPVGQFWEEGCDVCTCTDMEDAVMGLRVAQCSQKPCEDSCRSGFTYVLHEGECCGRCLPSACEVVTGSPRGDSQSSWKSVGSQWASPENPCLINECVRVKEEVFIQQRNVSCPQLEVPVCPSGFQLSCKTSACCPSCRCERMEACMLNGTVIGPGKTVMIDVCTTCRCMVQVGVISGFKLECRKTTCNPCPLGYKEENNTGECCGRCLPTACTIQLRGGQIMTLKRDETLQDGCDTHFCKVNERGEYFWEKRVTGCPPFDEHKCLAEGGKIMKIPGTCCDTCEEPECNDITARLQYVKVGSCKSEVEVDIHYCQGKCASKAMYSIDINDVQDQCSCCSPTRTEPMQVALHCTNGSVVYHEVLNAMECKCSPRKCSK
# Chain of rabbit vWF domain A1 binding to lyophilized platelets (as listed by the source): as the sequence (as listed by the source) above
molecule,measurement,setting,value
"GGACGATCTGACTAGCTCCAGTGTTTTATCTAATAACCGTCC (DNA, backbone not given here) [SEQ ID NO 208, minimized DNA aptamer]",IC50,[1]; [11],4300 pM
same,activity in the cellular / biological assays,[2],demonstrated activity
mGmCmGmUdGdCdAmGmUmGmCmCmUmUmCmGmGmCdCmGmTmGdCdGdGTmGmCdCmUdCdCmGmUmCmAmCmGmC-3T (mGmCmGmUdGdCdAmGmUmGmCmCmUmUmCmGmGmCdCmGmTmGdCdGdGdTmGmCdCmUdCdCmGmUmCmAmCmGmC[invdT]) [ARC1525],binding to human vWF,[3]; dot blot,no binding at all
same,activity in the cellular / biological assays,[2],did not display activity
"mGmCmGmUdGdCdAmGmUmGmCmCmUmUmCmGmGmCdCmGTmGdCdGdGTmGmCdCmUdCdCmGmUmCmAmCmGmC-3T (GCGUGCAGUGCCUUCGGCCGTGCGGTGCCUCCGUCACGC; sugars from the 5' end mmmmdddmmmmmmmmmmmdmdmddddmmdmddmmmmmmm, [invdT] at 3' end, backbone and methylation of C not given here) [ARC1346]",IC50,[4],180 nM
same,T½ Rat plasma,,19 h
same,% binding @ 100 nM vWF,[3]; Phase 2 modification,51%
same,Kd,"[3]; Phase 2 modification, full length human vWF, read-out: KD",11 nM
same,binding to human vWF,[3]; dot blot,the most potent
same,IC50,[1]; read-out: FACS IC50 vs human full length vWF,50000 pM
same,IC90,[5],> 1000 nM
mCmGmGmCdCmG-s-TmGdCdGdGTmGmCdCmUdCdCmGmUmCmAmCPEGmGmUdGdCdAmGmUmGmCmCmG-3T (CGGCCGTGCGGTGCCUCCGUCACGUGCAGUGCCGT; chemistry not fully specified) [ARC1533],T½ Human plasma,[6],93 h
same,% binding @ 100 nM vWF,[3]; Phase 4 and 5 modification,31.7%
same,Kd,"[3]; Phase 4 and 5 modification, full length human vWF, read-out: KD",4 nM
"AMX238.E9: DNA SELEX 2 aptamer clone (nucleic acid, DNA, backbone not given here, DNA SELEX 2 aptamer clone) DNA: CTACCTACGATCTGACTAGCGTGCAGTGCCCATCTTAGGCCGTGCGGTGCCTCCGTCACGCTTACTCTCATGTAGTTCC",Kd,[7],5.3 nM
same,Screen Rabbit/No Protein,[8],3.36
same,Kd,[3]; [12],0.39 nM
same,IC50,[1]; [11],3400 pM
same,IC50,"[1]; 5 nM full length human vWF, lyophilized platelets, botrocetin, units in the cell: lower bound pM, upper bound nM, read-out: Inhibition of full length hVWF binding in FACS assay, IC50 range",772 to 6500 pM
same,Screen- Human/No Protein,[9],3.44
same,activity in the cellular / biological assays,[2],slightly more potent
"AMX238.H5: DNA SELEX 2 aptamer clone (nucleic acid, DNA, backbone not given here, DNA SELEX 2 aptamer clone) DNA: CTACCTACGATCTGACTAGCGTGCAGTGCCTATTCTAGGCCGTGCGGTGCCTCCGTCACGCTTACTCTCATGTAGTTCC",Kd,[7],6 nM
same,Screen Rabbit/No Protein,[8],3.46
same,Kd,[3]; [12],0.33 nM
same,IC50,[1]; [11],658 pM
same,Screen- Human/No Protein,[9],3.75
same,activity in the cellular / biological assays,[2],slightly more potent
"Reopro: IIbIIIa antagonist (antibody, chains of the INN, looked up, V domains shown, Fab, IIbIIIa antagonist) VH: EVQLQQSGTVLARPGASVKMSCEASGYTFTNYWMHWVKQRPGQGLEWIGAIYPGNSDTSYIQKFKGKAKLTAVTSTTSVYMELSSLTNEDSAVYYCTLYDGYYVFAYWGQGTLVTVSA VL: EIVLTQSPVTLSVTPGDSVSLSCRASRDISNNLHWFQQTSHESPRLLIKYASQSMSGIPSRFSGSGSGTDFTLSINSVETEDFGMYFCQQTNSWPYTFGGGTKLEIK",arteries that developed occlusive thrombi,[10],20%
